Data published in article PMC9481106, “Design, synthesis and biological evaluation of 2,4-pyrimidinediamine derivatives as ALK and HDACs dual inhibitors for the treatment of ALK addicted cancer” (Journal of Enzyme Inhibition and Medicinal Chemistry, 2022).

What was measured:
[1] = target: ALK^wt (anaplastic lymphoma kinase) (Homo sapiens, UniProt Q9UM73); assay: enzyme inhibition assay with fluorescent assay kit; format: biochemical
[2] = target: HDAC1 (Homo sapiens, UniProt Q13547); assay: enzyme inhibition assay with fluorescent assay kit; format: biochemical
Sequence of HDAC1 (Q13547 whole entry): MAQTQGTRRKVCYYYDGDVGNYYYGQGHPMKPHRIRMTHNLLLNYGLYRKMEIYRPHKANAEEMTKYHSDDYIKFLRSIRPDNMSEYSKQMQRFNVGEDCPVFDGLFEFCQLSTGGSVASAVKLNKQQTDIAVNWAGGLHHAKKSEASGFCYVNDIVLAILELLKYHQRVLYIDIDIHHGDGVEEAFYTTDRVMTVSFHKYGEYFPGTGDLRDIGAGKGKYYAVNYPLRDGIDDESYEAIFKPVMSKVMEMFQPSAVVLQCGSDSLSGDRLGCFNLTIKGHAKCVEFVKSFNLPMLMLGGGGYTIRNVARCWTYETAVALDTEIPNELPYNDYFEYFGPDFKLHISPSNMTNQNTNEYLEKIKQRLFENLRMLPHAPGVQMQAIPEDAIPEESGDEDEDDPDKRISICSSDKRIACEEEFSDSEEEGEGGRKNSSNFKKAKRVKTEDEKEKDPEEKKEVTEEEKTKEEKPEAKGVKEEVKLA

Sequence of ALK^wt (anaplastic lymphoma kinase) (Q9UM73 19-1620): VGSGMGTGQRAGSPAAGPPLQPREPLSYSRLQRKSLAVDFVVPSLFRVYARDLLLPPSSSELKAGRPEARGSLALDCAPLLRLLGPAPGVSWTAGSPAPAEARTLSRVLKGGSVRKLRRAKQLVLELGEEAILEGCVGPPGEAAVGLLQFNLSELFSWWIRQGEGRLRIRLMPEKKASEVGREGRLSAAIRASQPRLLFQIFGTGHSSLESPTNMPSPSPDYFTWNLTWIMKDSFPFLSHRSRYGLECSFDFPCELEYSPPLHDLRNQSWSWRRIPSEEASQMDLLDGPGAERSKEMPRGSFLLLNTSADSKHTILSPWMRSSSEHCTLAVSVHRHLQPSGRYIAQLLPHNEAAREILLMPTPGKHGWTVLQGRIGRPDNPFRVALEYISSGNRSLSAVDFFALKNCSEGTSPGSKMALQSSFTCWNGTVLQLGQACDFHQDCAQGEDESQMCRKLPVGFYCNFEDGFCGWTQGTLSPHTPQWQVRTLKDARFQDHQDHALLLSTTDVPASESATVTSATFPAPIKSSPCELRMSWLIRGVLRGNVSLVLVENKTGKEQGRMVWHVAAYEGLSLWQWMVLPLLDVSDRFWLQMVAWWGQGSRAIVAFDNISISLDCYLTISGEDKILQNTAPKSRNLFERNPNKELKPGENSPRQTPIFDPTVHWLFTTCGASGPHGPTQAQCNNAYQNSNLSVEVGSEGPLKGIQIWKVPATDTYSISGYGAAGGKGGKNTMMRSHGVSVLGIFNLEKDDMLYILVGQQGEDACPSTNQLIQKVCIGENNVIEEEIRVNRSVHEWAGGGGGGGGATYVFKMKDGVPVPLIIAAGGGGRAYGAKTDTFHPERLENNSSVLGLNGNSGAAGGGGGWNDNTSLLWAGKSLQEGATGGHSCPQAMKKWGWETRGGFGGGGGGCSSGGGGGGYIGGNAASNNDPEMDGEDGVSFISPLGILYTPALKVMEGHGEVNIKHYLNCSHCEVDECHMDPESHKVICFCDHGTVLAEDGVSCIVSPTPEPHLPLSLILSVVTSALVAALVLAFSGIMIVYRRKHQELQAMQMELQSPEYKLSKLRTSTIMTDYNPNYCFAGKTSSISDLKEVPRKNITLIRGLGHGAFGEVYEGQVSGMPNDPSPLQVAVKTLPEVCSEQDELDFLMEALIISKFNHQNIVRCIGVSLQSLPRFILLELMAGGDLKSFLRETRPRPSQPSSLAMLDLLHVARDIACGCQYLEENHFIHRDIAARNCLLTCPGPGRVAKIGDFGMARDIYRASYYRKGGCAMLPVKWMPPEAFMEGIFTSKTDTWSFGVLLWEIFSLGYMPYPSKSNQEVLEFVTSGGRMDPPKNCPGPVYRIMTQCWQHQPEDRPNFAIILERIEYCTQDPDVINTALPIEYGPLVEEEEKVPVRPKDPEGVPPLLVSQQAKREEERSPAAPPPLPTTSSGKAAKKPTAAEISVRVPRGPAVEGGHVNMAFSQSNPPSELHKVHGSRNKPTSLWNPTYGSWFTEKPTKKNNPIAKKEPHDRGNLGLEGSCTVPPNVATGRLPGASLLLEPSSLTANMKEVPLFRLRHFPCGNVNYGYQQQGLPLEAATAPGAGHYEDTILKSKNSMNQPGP

In the case of `CC(C)S(=O)(=O)c1ccccc1Nc1nc(Nc2ccc(C(=O)Nc3ccccc3N)cc2)ncc1Cl` [12a, N-(2-aminophenyl)-4-((5-chloro-4-((2-(isopropylsulfonyl)phenyl)amino)pyrimidin-2-yl)amino)benzamide], the IC50 [1] is reported as 9.5 nM and the IC50 [2] is reported as 1450 nM.
